Assay results from patent US10294202B2, “Pyrrolidinones as herbicides” (FMC Corporation, priority 2013, dated 2019).

Legend:
[1] = tested on: sedge, umbrella; assay: Test B flooded paddy test; format: in vivo, Cyperus difformis; conditions: Flood, scale of 0 to 100 where 0 is no effect and 100 is complete control
Method in brief: (§1)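 Paddy-water application at a 3 cm flood, young plants having two leaves. Water level maintained; greenhouse, 13–15 days; visual 0–100 control rating.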

[2] = tested on: barnyardgrass; assay: Test A pre-/postemergence herbicide test; format: in vivo, Echinochloa crus-galli
Method in brief: (§2)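 Seeds sown in loam soil/sand blend received a preemergence directed soil spray of test chemical in non-phytotoxic solvent with surfactant; postemergence plants (2–10 cm, one- to two-leaf stage) were sprayed with the same formulation. After about 10 days in greenhouse, injury was rated visually versus untreated controls, 0 (no effect) to 100 (complete control).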

[3] = tested on: barnyardgrass; assay: Test B flooded paddy test; format: in vivo, Echinochloa crus-galli; conditions: Flood, scale of 0 to 100 where 0 is no effect and 100 is complete control
Method in brief: as §1

[4] = tested on: corn; assay: Test A pre-/postemergence herbicide test; format: in vivo, Zea mays; conditions: Postemergence; for Plant response rating, Corn: 125 g ai/ha, 0 to 100 scale, 0 is no effect, 100 is complete control; for Corn plant response rating (0 to 100 scale, 0 is no effect, 100 is complete control): 500 g ai/ha
Method in brief: as §2

[5] = tested on: galium; assay: Test A postemergence herbicide test; format: in vivo, Galium aparine; conditions: for Plant response rating, Galium: 125 g ai/ha, 0 to 100 scale, 0 is no effect, 100 is complete control; for Galium plant response rating (0 to 100 scale, 0 is no effect, 100 is complete control): 500 g ai/ha
Method in brief: (§3)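 Plants at the one- to two-leaf stage, 2–10 cm tall, grown in loam/sand pots, received postemergence sprays of the test chemicals. After about 10 days in the greenhouse, injury was scored visually against untreated controls on a 0–100 scale (0 none, 100 complete control).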

[6] = tested on: ducksalad; assay: Test B flooded paddy test; format: in vivo, Heteranthera limosa; conditions: Flood, scale of 0 to 100 where 0 is no effect and 100 is complete control
Method in brief: as §1

[7] = tested on: giant foxtail; assay: Test A pre-/postemergence herbicide test; format: in vivo, Setaria faberii; conditions: for Plant response rating, Foxtail, Giant: 0 to 100 scale
Method in brief: as §2

[8] = tested on: pigweed; assay: Test A pre-/postemergence herbicide test; format: in vivo, Amaranthus retroflexus; conditions: for Plant response rating, Pigweed: 0 to 100 scale
Method in brief: as §2

[9] = tested on: ragweed; assay: Test A pre-/postemergence herbicide test; format: in vivo, Ambrosia elatior; conditions: for Plant response rating, Ragweed: 0 to 100 scale
Method in brief: as §2

[10] = tested on: ryegrass, Italian; assay: Test A pre-/postemergence herbicide test; format: in vivo, Lolium multiflorum; conditions: for Plant response rating, Ryegrass, Italian: 0 to 100 scale
Method in brief: as §2

[11] = tested on: kochia; assay: Test A pre-/postemergence herbicide test; format: in vivo, Kochia scoparia; conditions: for Plant response rating, Kochia: 0 to 100 scale
Method in brief: as §2

[12] = tested on: rice; assay: Test B flooded paddy test; format: in vivo, Oryza sativa; conditions: Flood, scale of 0 to 100 where 0 is no effect and 100 is complete control
Method in brief: as §1

[13] = tested on: blackgrass; assay: Test A postemergence herbicide test; format: in vivo, Alopecurus myosuroides; conditions: for Plant response rating, Blackgrass: 125 g ai/ha, 0 to 100 scale, 0 is no effect, 100 is complete control; for Blackgrass plant response rating (0 to 100 scale, 0 is no effect, 100 is complete control): 500 g ai/ha
Method in brief: as §3

[14] = tested on: wheat; assay: Test A pre-/postemergence herbicide test; format: in vivo, Triticum aestivum; conditions: Postemergence; for Plant response rating, Wheat: 125 g ai/ha, 0 to 100 scale, 0 is no effect, 100 is complete control; for Wheat plant response rating (0 to 100 scale, 0 is no effect, 100 is complete control): 500 g ai/ha
Method in brief: as §2

[15] = 125 g ai/ha, visual rating, 0 to 100 scale, 0 no effect, 100 complete control, approximately 10 days, preemergence
[16] = Postemergence, 125 g ai/ha, 0 to 100 scale, 0 is no effect, 100 is complete control
[17] = 125 g ai/ha, visual rating, 0 no effect, 100 complete control, approximately 10 days, preemergence
[18] = Postemergence, 125 g ai/ha, 0 is no effect, 100 is complete control
[19] = preemergence, 500 g ai/ha, 0 is no effect and 100 is complete control

Structure (SMILES)	Plant response rating, Barnyardgrass [2, 15]	Plant response rating, Barnyardgrass [2, 16]	Barnyardgrass plant response rating (0 to 100 scale, 0 is no effect, 100 is complete control) ([2]; Postemergence, 500 g ai/ha)	Plant response rating, Corn [4]	Corn plant response rating (0 to 100 scale, 0 is no effect, 100 is complete control) [4]	Plant response rating, Galium [5]	Galium plant response rating (0 to 100 scale, 0 is no effect, 100 is complete control) [5]	Plant response rating, Foxtail, Giant [7, 17]	Plant response rating, Foxtail, Giant [7, 18]	Foxtail, Giant plant response rating (0 to 100 scale, 0 is no effect, 100 is complete control) ([7]; Postemergence, 500 g ai/ha)	Plant response rating, Pigweed [8, 17]	Plant response rating, Pigweed [8, 18]	Pigweed plant response rating (0 to 100 scale, 0 is no effect, 100 is complete control) ([8]; Postemergence, 500 g ai/ha)	Plant response rating, Pigweed [8, 19]	Plant response rating, Ragweed [9, 17]	Plant response rating, Ragweed [9, 18]	Ragweed plant response rating (0 to 100 scale, 0 is no effect, 100 is complete control) ([9]; Postemergence, 500 g ai/ha)	Plant response rating, Ragweed [9, 19]	Plant response rating, Ryegrass, Italian [10, 17]	Plant response rating, Ryegrass, Italian [10, 18]	further results
CCc1cccc(C2CNC(=O)C2C(=O)Nc2ccccc2F)c1 (racemic) [Compound 169]	90	90	90	0	50	20	50	80	60	90	0	0	0	20	0	0	0	20	0	20	Plant response rating, Sedge, Umbrella ([1]; 500 g ai/ha): 0; Plant response rating, Barnyardgrass ([2]; preemergence, 500 g ai/ha, 0 to 100 scale (0 no effect, 100 complete control)): 90; Plant response rating, Barnyardgrass ([3]; 500 g ai/ha): 80; Plant response rating, Ducksalad ([6]; 500 g ai/ha): 100; Plant response rating, Foxtail, Giant ([7]; preemergence, 500 g ai/ha): 90; Ryegrass, Italian plant response rating (0 to 100 scale, 0 is no effect, 100 is complete control) ([10]; Postemergence, 500 g ai/ha): 40; Plant response rating, Ryegrass, Italian [10, 19]: 20; Plant response rating, Kochia [11, 17]: 40; Plant response rating, Kochia [11, 18]: 0; Kochia plant response rating (0 to 100 scale, 0 is no effect, 100 is complete control) ([11]; Postemergence, 500 g ai/ha): 40; Plant response rating, Kochia [11, 19]: 60; Plant response rating, Rice ([12]; 500 g ai/ha): 0; Plant response rating, Blackgrass [13]: 30; Blackgrass plant response rating (0 to 100 scale, 0 is no effect, 100 is complete control) [13]: 60; Plant response rating, Wheat [14]: 0; Wheat plant response rating (0 to 100 scale, 0 is no effect, 100 is complete control) [14]: 50
COc1ccc(C2CNC(=O)C2C(=O)Nc2ccccc2F)cc1C(F)(F)F (racemic) [Compound 209]	30	60	80	0	0	0	0	50	40	70	0	0	0	20	0	0	0	0	0	0	Plant response rating, Sedge, Umbrella ([1]; 1000 g ai/ha): 0; Plant response rating, Barnyardgrass ([2]; preemergence, 500 g ai/ha, 0 to 100 scale, 0 is no effect and 100 is complete control): 60; Plant response rating, Barnyardgrass ([3]; 1000 g ai/ha): 45; Plant response rating, Ducksalad ([6]; 1000 g ai/ha): 95; Plant response rating, Foxtail, Giant [7, 19]: 90; Ryegrass, Italian plant response rating (0 to 100 scale, 0 is no effect, 100 is complete control) ([10]; Postemergence, 500 g ai/ha): 20; Plant response rating, Ryegrass, Italian [10, 19]: 20; Plant response rating, Kochia [11, 17]: 0; Plant response rating, Kochia [11, 18]: 0; Kochia plant response rating (0 to 100 scale, 0 is no effect, 100 is complete control) ([11]; Postemergence, 500 g ai/ha): 0; Plant response rating, Kochia [11, 19]: 20; Plant response rating, Rice ([12]; 1000 g ai/ha): 0; Plant response rating, Blackgrass [13]: 0; Blackgrass plant response rating (0 to 100 scale, 0 is no effect, 100 is complete control) [13]: 20; Plant response rating, Wheat [14]: 0; Wheat plant response rating (0 to 100 scale, 0 is no effect, 100 is complete control) [14]: 0
